Tests used:
velvetleaf = test: Test B pre/postemergence velvetleaf; type: in vivo, Abutilon theophrasti
In short: (§1)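 Herbicidal effect was estimated by eye on a ten-point control scale after plants spent twelve to sixteen days in a greenhouse following soil or foliar treatment. Foliar sprays targeted plants at one to four leaves; all doses were formulated in a non-phytotoxic solvent with surfactant.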

rice = test: Test B flood test rice; type: in vivo, Oryza sativa; settings: Pre-emergence
In short: (§2)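 Each value is a visual injury score relative to controls, with 10 meaning complete control and 0 no effect. Evaluation took place twelve to sixteen days after the 2-leaf-stage plants were treated and kept in the greenhouse.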

smallflower flatsedge = test: Test B flood test smallflower flatsedge; type: in vivo, Cyperus difformis; settings: Pre-emergence
In short: as §2

sugar beet = test: Test B pre/postemergence sugar beet; type: in vivo, Beta vulgaris
In short: as §1

bedstraw = test: Test B pre/postemergence bedstraw; type: in vivo, Galium aparine
In short: as §1

wild oat = test: Test B pre/postemergence wild oat; type: in vivo, Avena fatua
In short: as §1

crabgrass = test: Test B pre/postemergence crabgrass; type: in vivo, Digitaria sanguinalis
In short: as §1

purple nutsedge = test: Test B pre/postemergence purple nutsedge; type: in vivo, Cyperus rotundus
In short: as §1

blackgrass = test: Test B pre/postemergence blackgrass; type: in vivo, Alopecurus myosuroides
In short: as §1

surinam grass = test: Test B pre/postemergence surinam grass; type: in vivo, Brachiaria decumbens
In short: as §1

soybean = test: Test B pre/postemergence soybean; type: in vivo, Glycine max
In short: as §1

cocklebur = test: Test B pre/postemergence cocklebur; type: in vivo, Xanthium strumarium
In short: as §1

bamyardgrass = test: Test B flood test barnyardgrass; type: in vivo, Echinochloa crus-galli; settings: Pre-emergence
In short: as §2

giant foxtail = test: Test B pre/postemergence giant foxtail; type: in vivo, Setaria faberii
In short: as §1

corn = test: Test B pre/postemergence corn; type: in vivo, Zea mays
In short: as §1

pigweed = test: Test B pre/postemergence pigweed; type: in vivo, Amaranthus retroflexus
In short: as §1

[1] = Preemergence, Rate 62 g/ha, scale of 0 to 10 where 0 is no effect and 10 is complete control
[2] = Preemergence, Rate 250 g/ha, scale of 0 to 10 where 0 is no effect and 10 is complete control
[3] = Preemergence, Rate 500 g/ha, scale of 0 to 10 where 0 is no effect and 10 is complete control
[4] = Rate 62 g/ha, Postemergence, scale 0 to 10 (0 no effect, 10 complete control)
[5] = Rate 125 g/ha, Postemergence, scale of 0 to 10 where 0 is no effect and 10 is complete control
[6] = Rate 250 g/ha, Postemergence, scale of 0 to 10 where 0 is no effect and 10 is complete control
[7] = Rate 1000 g/ha, scale 0 to 10 (0 no effect, 10 complete control)
[8] = Rate 125 g/ha, flood test species, scale 0 to 10 where 0 is no effect and 10 is complete control
[9] = Rate 250 g/ha, flood-test species, scale 0 to 10, 0 is no effect, 10 is complete control
[10] = Rate 500 g/ha, flood test species, scale 0 to 10 (0 no effect, 10 complete control)
[11] = Rate 500 g/ha, Postemergence, scale 0 to 10, 0 no effect, 10 complete control

SMILES: C=CCn1c(=O)on(C(=O)N(CC)C2CCCCC2)c1=O [Compound 307]
- Velvetleaf plant response rating (velvetleaf; [1]): 0
- Velvetleaf plant response rating (0 to 10 scale) (velvetleaf; Preemergence, Rate 125 g/ha): 0
- Velvetleaf plant response rating (velvetleaf; [2]): 0
- Velvetleaf plant response rating (velvetleaf; [3]): 2
- Velvetleaf plant response rating (velvetleaf; [4]): 0
- Velvetleaf plant response rating (velvetleaf; [5]): 0
- Plant response rating, Velvetleaf (velvetleaf; [6]): 0
- Rice plant response rating (rice; [7]): 0
- Rice plant response rating (rice; [8]): 0
- Rice plant response rating (rice; [9]): 0
- Rice plant response rating (rice; [10]): 0
- S. Flatsedge plant response rating (smallflower flatsedge; [7]): 0
- S. Flatsedge plant response rating (smallflower flatsedge; [8]): 0
- S. Flatsedge plant response rating (smallflower flatsedge; [9]): 0
- S. Flatsedge plant response rating (smallflower flatsedge; [10]): 0
- Sugarbeets plant response rating (sugar beet; [1]): 0
- Sugarbeets plant response rating (0 to 10 scale) (sugar beet; Preemergence, Rate 125 g/ha): 0
- Sugarbeets plant response rating (sugar beet; [2]): 0
- Sugarbeets plant response rating (sugar beet; [3]): 2
- Sugarbeets plant response rating (sugar beet; [4]): 0
- Sugarbeets plant response rating (sugar beet; [5]): 0
- Plant response rating, Sugarbeets (sugar beet; [6]): 0
- Bedstraw plant response rating (bedstraw; [1]): 0
- Bedstraw plant response rating (0 to 10 scale) (bedstraw; Preemergence, Rate 125 g/ha): 0
- Bedstraw plant response rating (bedstraw; [2]): 0
- Bedstraw plant response rating (bedstraw; [3]): 0
- Bedstraw plant response rating (bedstraw; [4]): 0
- Bedstraw plant response rating (bedstraw; [5]): 0
- Plant response rating, Bedstraw (bedstraw; [6]): 0
- Bedstraw plant response rating (bedstraw; [11]): 0
- Wild oats plant response rating (wild oat; [1]): 0
- Wild oats plant response rating (0 to 10 scale) (wild oat; Preemergence, Rate 125 g/ha): 0
- Wild oats plant response rating (wild oat; [2]): 0
- Wild oats plant response rating (wild oat; [3]): 8
- Wild oats plant response rating (wild oat; [4]): 0
- Wild oats plant response rating (wild oat; [5]): 0
- Plant response rating, Wild oats (wild oat; [6]): 0
- Crabgrass plant response rating (crabgrass; [1]): 0
- Crabgrass plant response rating (0 to 10 scale) (crabgrass; Preemergence, Rate 125 g/ha): 0
- Crabgrass plant response rating (crabgrass; [2]): 0
- Crabgrass plant response rating (crabgrass; [3]): 2
- Crabgrass plant response rating (crabgrass; [4]): 0
- Crabgrass plant response rating (crabgrass; [5]): 0
- Plant response rating, Crabgrass (crabgrass; [6]): 0
- Nutsedge plant response rating (purple nutsedge; [1]): 0
- Nutsedge plant response rating (0 to 10 scale) (purple nutsedge; Preemergence, Rate 125 g/ha): 0
- Nutsedge plant response rating (purple nutsedge; [2]): 0
- Nutsedge plant response rating (purple nutsedge; [3]): 0
- Nutsedge plant response rating (purple nutsedge; [4]): 0
- Nutsedge plant response rating (purple nutsedge; [5]): 0
- Plant response rating, Nutsedge (purple nutsedge; [6]): 0
- Blackgrass plant response rating (blackgrass; [1]): 0
- Blackgrass plant response rating (0 to 10 scale) (blackgrass; Preemergence, Rate 125 g/ha): 0
- Blackgrass plant response rating (blackgrass; [2]): 2
- Blackgrass plant response rating (blackgrass; [3]): 4
- Blackgrass plant response rating (blackgrass; [4]): 0
- Blackgrass plant response rating (blackgrass; [5]): 0
- Plant response rating, Blackgrass (blackgrass; [6]): 0
- Blackgrass plant response rating (blackgrass; [11]): 0
- B. signalgrass plant response rating (surinam grass; [1]): 0
- B. signalgrass plant response rating (0 to 10 scale, 0 is no effect, 10 is complete control) (surinam grass; Preemergence, Rate 125 g/ha): 0
- B. signalgrass plant response rating (surinam grass; [2]): 0
- B. signalgrass plant response rating (surinam grass; [3]): 4
- B. signalgrass plant response rating (surinam grass; [4]): 0
- B. signalgrass plant response rating (surinam grass; [5]): 0
- Plant response rating, B. signalgrass (surinam grass; [6]): 0
- B. signalgrass plant response rating (surinam grass; [11]): 0
- Soybean plant response rating (soybean; [1]): 0
- Soybean plant response rating (0 to 10 scale) (soybean; Preemergence, Rate 125 g/ha): 0
- Soybean plant response rating (soybean; [2]): 0
- Soybean plant response rating (soybean; [3]): 0
- Soybean plant response rating (soybean; [4]): 0
- Soybean plant response rating (soybean; [5]): 2
- Plant response rating, Soybean (soybean; [6]): 2
- Cocklebur plant response rating (cocklebur; [1]): 0
- Cocklebur plant response rating (0 to 10 scale) (cocklebur; Preemergence, Rate 125 g/ha): 0
- Cocklebur plant response rating (cocklebur; [2]): 0
- Cocklebur plant response rating (cocklebur; [4]): 0
- Cocklebur plant response rating (cocklebur; [5]): 0
- Plant response rating, Cocklebur (cocklebur; [6]): 0
- Cocklebur plant response rating (cocklebur; [11]): 0
- Barnyardgrass plant response rating (bamyardgrass; [7]): 0
- Barnyardgrass plant response rating (bamyardgrass; [8]): 0
- Barnyardgrass plant response rating (bamyardgrass; [9]): 0
- Barnyardgrass plant response rating (bamyardgrass; [10]): 0
- Giant foxtail plant response rating (giant foxtail; [1]): 6
- Giant foxtail plant response rating (0 to 10 scale) (giant foxtail; Preemergence, Rate 125 g/ha): 8
- Giant foxtail plant response rating (giant foxtail; [2]): 9
- Giant foxtail plant response rating (giant foxtail; [3]): 9
- Giant foxtail plant response rating (giant foxtail; [4]): 0
- Giant foxtail plant response rating (giant foxtail; [5]): 0
- Plant response rating, Giant foxtail (giant foxtail; [6]): 0
- Corn plant response rating (corn; [1]): 0
- Corn plant response rating (0 to 10 scale) (corn; Preemergence, Rate 125 g/ha): 0
- Corn plant response rating (corn; [2]): 0
- Corn plant response rating (corn; [3]): 2
- Corn plant response rating (corn; [4]): 0
- Corn plant response rating (corn; [5]): 0
- Plant response rating, Corn (corn; [6]): 0
- Corn plant response rating (corn; [11]): 0
- Redroot pigweed plant response rating (pigweed; [1]): 0
- Redroot pigweed plant response rating (0 to 10 scale) (pigweed; Preemergence, Rate 125 g/ha): 0
- Redroot pigweed plant response rating (pigweed; [2]): 0
- Redroot pigweed plant response rating (pigweed; [3]): 4
- Redroot pigweed plant response rating (pigweed; [4]): 0
- Redroot pigweed plant response rating (pigweed; [5]): 0
- Plant response rating, Redroot pigweed (pigweed; [6]): 0
